# In patent publication US11679107B2 (Eisai R&D Management Co., Ltd., priority 2018, dated 2023):
# Read-outs that look alike come from different tables or passages of the source.
# Assays:
# [1] = tested on: Panc 05.04 cells (SF3b K700E mutant); test: Cell proliferation and viability, CellTiter-Glo, 72 hours; assay type: cell-based; settings: for GI50: geometric mean
# Summary of the method: (§1)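 Cells grown in RPMI-1640 with 10% FBS (Panc 05.04 with added insulin, 15% FBS total) were exposed to an 11-point half-log dilution, typically 10 μM–100 pM, at 0.1% DMSO for 72 h at 37 °C. ATP content was read by CellTiter-Glo luminescence. Percent inhibition was set against a time-zero plate and DMSO vehicle wells, on a −100% (cidal) to 100% (uninhibited growth) scale.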
# [2] = tested on: NCI-H1568 cells (high MCL1); test: as above; assay type: cell-based; settings: for GI50: geometric mean
# Summary of the method: as §1
# SF3b complexes = molecular target: T1, SF3b complexes (Homo sapiens, UniProt O75533+Q7RTV0); test: Scintillation proximity assay (SPA) with [3H]-labelled pladienolide probe; assay type: binding; settings: SF3B1 (WT); geometric mean; read-out: SPA-ATS GMean IC50 (nM) SF3B1 (WT)
# T1 construct: endogenous in cells; host or cells: Nuclear extracts; A HeLa S3 extract preparation is described for the in vitro splicing assay
# Summary of the method: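 SF3b complexes captured from nuclear extracts on anti-SF3B1 antibody SPA beads; test compounds pre-incubated 30 min before 2.5 nM [3H]-pladienolide probe added, then 30 min incubation. Bound probe read by scintillation; values from non-linear regression of concentration–response curves.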
# [3] = tested on: Ad2 variant pre-mRNAs spliced in HeLa S3 nuclear extracts; test: In vitro splicing assay (IVS), RT-qPCR of spliced product; assay type: biochemical; settings: for IC50: geometric mean
# Summary of the method: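 Ad2 variant pre-mRNA (2 ng) with FTZΔi control RNA in HeLa S3 nuclear extract (8 μg) was pre-incubated with compound or DMSO for 15 min at 30 °C. Splicing ran 90 min at 30 °C after adding 0.5 mM ATP, creatine phosphate and MgCl2. Spliced product was quantified by TaqMan RT-qPCR, normalized to DMSO, and curve-fitted.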
# [4] = PANC0504.1 cells, 72 h, −100% cidal, 0% static, 100% maximal growth
# [5] = Panc 05.04, read-out: CTGlo-ATS GMean GI50 (nM) 72 h PANC0504.1, PANC0504.1 cells, 72 h
# [6] = NCI-H1568, read-out: CTGlo-ATS GMean GI50 (nM) 72 h NCIH1568.1, NCIH1568.1 cells, 72 h
# [7] = NCIH1568.1 cells, 72 h, −100% cidal, 0% static, 100% maximal growth
# [8] = Ad2.1 pre-mRNA substrate, read-out: qPCR-IVS-ATS GMean IC50 (nM) Ad2.1
# [9] = Ad2.2 pre-mRNA substrate, read-out: qPCR-IVS-ATS GMean IC50 (nM) Ad2.2
# [10] = Panc 05.04, 72 h, read-out: CTGlo-ATS GMean GI50 (nM) 72 h PANC0504.1, PANC0504.1 cells, 72 h
# [11] = NCI-H1568, 72 h, read-out: CTGlo-ATS GMean GI50 (nM) 72 h NCIH1568.1, NCIH1568.1 cells, 72 h
Compound,"CTGlo-ATS Mean MinResponse % 72 h PANC0504.1 [1, 4]","GI50 [1, 5]","GI50 [2, 6]","CTGlo-ATS Mean MinResponse % 72 h NCIH1568.1 [2, 7]",IC50 (SF3b complexes),"IC50 [3, 8]","IC50 [3, 9]","GI50 [1, 10]","GI50 [2, 11]","CTGlo-ATS Mean MinResponse % 72 h PANC0504.1 ([1]; 72 h, PANC0504.1, -100% = cidal, 0% = static, 100% = uninhibited growth)","GI50 ([1]; Panc 05.04, read-out: CTGlo-ATS GMean GI50 (nM) 72 h PANC0504.1, 72 h, PANC0504.1)","CTGlo-ATS Mean MinResponse % 72 h NCIH1568.1 ([2]; 72 h, NCIH1568.1, -100% = cidal, 0% = static, 100% = uninhibited growth)","GI50 ([2]; NCI-H1568, read-out: CTGlo-ATS GMean GI50 (nM) 72 h NCIH1568.1, 72 h, NCIH1568.1)",Ratio Ad2.1/2.2 ([3]; ratio of IVS IC50 Ad2.1 to Ad2.2)
C/C(=C\c1cc(F)c2cn(C3CCOCC3)nc2c1)[C@H]1OC(=O)C[C@H](O)CC[C@H](C)[C@@H](OC(=O)N2CCN(C)CC2)/C=C/[C@@H]1C [Compound 117],−95.049%,50.2 nM,79.8 nM,−55.709%,9.76 nM,> 25000 nM,69.6 nM,,,,,,,
C/C(=C\c1cc(N2CCOCC2)ccc1F)[C@H]1OC(=O)C[C@H](O)CC[C@H](C)[C@@H](OC(=O)N2CCC(N3CCCCC3)CC2)/C=C/[C@@H]1C [Compound 11],−91.789%,54.2 nM,84.4 nM,−43.979%,9.49 nM,> 25000 nM,93.4 nM,,,,,,,
C/C(=C\c1cccc(N(C)C2CCOCC2)c1)[C@H]1OC(=O)C[C@H](O)CC[C@H](C)[C@@H](OC(=O)N2CCN(C)CC2)/C=C/[C@@H]1C [Compound 170],−96.570%,23.2 nM,25.9 nM,−56.895%,4.93 nM,11000 nM,31 nM,,,,,,,
C/C(=C\c1cc(F)cc(N2CCOCC2)c1)[C@H]1OC(=O)C[C@H](O)CC[C@H](C)[C@@H](OC(=O)N2CCN(C(C)(C)C)CC2)/C=C/[C@@H]1C [Compound 25],−88.378%,20.5 nM,20.6 nM,−49.158%,4.94 nM,430 nM,46.4 nM,,,,,,,
"C/C(=C\c1ccc(C)c2[nH]ncc12)[C@H]1OC(=O)C[C@H](O)CC[C@H](C)[C@@H](OC(=O)N2CCN(C)CC2)/C=C/[C@@H]1C [Compound 89, [(2S,3S,4E,6R,7S,10R)-10-hydroxy-3,7-dimethyl-2-[(E)-1-(7-methyl-1H-indazol-4-yl)prop-1-en-2-yl]-12-oxo-1-oxacyclododec-4-en-6-yl] 4-methylpiperazine-1-carboxylate]",−16.694%,109 nM,219 nM,−22.815%,3.25 nM,24700 nM,95.4 nM,,,,,,,
C/C(=C\c1cccc(S(=O)(=O)N2CCC(O)CC2)c1)[C@H]1OC(=O)C[C@H](O)CC[C@H](C)[C@@H](OC(=O)N2CCN(C)CC2)/C=C/[C@@H]1C [Compound 95],−93.120%,,,−73.174%,2.32 nM,10.3 nM,10 nM,2.59 nM,2.51 nM,,,,,
C/C(=C\c1ccc(S(=O)(=O)NC2CCCC2)cc1F)[C@H]1OC(=O)C[C@H](O)CC[C@H](C)[C@@H](OC(=O)N2CCN(C)CC2)/C=C/[C@@H]1C [Compound 57],−71.380%,49.7 nM,41.3 nM,−47.783%,9.16 nM,> 25000 nM,228 nM,,,,,,,
C/C(=C\c1cncc(Cl)c1)[C@H]1OC(=O)C[C@H](O)CC[C@H](C)[C@@H](OC(=O)N2CCN(C)CC2)/C=C/[C@@H]1C [Compound 46],0.031%,40 nM,78.4 nM,−10.684%,12.2 nM,> 25000 nM,114 nM,,,,,,,
C/C(=C\c1cc(F)cc(N2CCN(S(C)(=O)=O)CC2)c1)[C@H]1OC(=O)C[C@H](O)CC[C@H](C)[C@@H](OC(=O)N2CCN(C)CC2)/C=C/[C@@H]1C [Compound 58],−91.132%,6.97 nM,7 nM,−70.067%,6.54 nM,30.1 nM,22 nM,,,,,,,
C/C(=C\c1cc(F)cc(N2CCC(=O)C2)c1)[C@H]1OC(=O)C[C@H](O)CC[C@H](C)[C@@H](OC(=O)N2CCN(C)CC2)/C=C/[C@@H]1C [Compound 35],−87.702%,53.2 nM,107 nM,−46.227%,4.78 nM,913 nM,27.1 nM,,,,,,,
C/C(=C\c1cc(F)cc(N2CCN(S(=O)(=O)C3COC3)CC2)c1)[C@H]1OC(=O)C[C@H](O)CC[C@H](C)[C@@H](OC(=O)N2CCN(C)CC2)/C=C/[C@@H]1C [Compound 125],−83.226%,6.76 nM,4.51 nM,−83.586%,5.06 nM,17.6 nM,14.9 nM,,,,,,,
C/C(=C\c1cc(F)cc(N2CCOCC2)c1)[C@H]1OC(=O)C[C@H](O)CC[C@H](C)[C@@H](OC(=O)N2CCN(CCO)CC2)/C=C/[C@@H]1C [Compound 21],−90.919%,23.6 nM,31.2 nM,−50.841%,10.3 nM,1610 nM,52.3 nM,,,,,,,
C/C(=C\c1cccc(N(C)C2COC2)c1)[C@H]1OC(=O)C[C@H](O)CC[C@H](C)[C@@H](OC(=O)N2CCN(C)CC2)/C=C/[C@@H]1C [Compound 171],−92.998%,,,−50.083%,1.51 nM,18800 nM,42.6 nM,23.6 nM,19.6 nM,,,,,
C/C(=C\c1cc(F)cc(N2CCN(S(=O)(=O)CCN3CCOCC3)CC2)c1)[C@H]1OC(=O)C[C@H](O)CC[C@H](C)[C@@H](OC(=O)N2CCN(C)CC2)/C=C/[C@@H]1C [Compound 73],−79.201%,6.91 nM,5.85 nM,−76.720%,2.42 nM,13.1 nM,13.6 nM,,,,,,,
C/C(=C\c1cc(F)cc(N2CCOCC2)c1)[C@H]1OC(=O)C[C@H](O)CC[C@@](C)(O)[C@@H](OC(=O)N2CCN(C)CC2)/C=C/[C@@H]1C [Compound 61],−93.599%,,,−38.996%,13.5 nM,> 25000 nM,114 nM,42 nM,46.8 nM,,,,,
C/C(=C\c1cc(F)cc(N2CCN(C(=O)C3CCOC3)CC2)c1)[C@H]1OC(=O)C[C@H](O)CC[C@H](C)[C@@H](OC(=O)N2CCN(C)CC2)/C=C/[C@@H]1C (stereo partly shown) [Compound 143],−87.719%,,,−84.803%,3.2 nM,19.2 nM,17.2 nM,3.67 nM,1.75 nM,,,,,
"C/C(=C\c1cccc(S(=O)(=O)N2CCC2)c1)[C@H]1OC(=O)C[C@H](O)CC[C@H](C)[C@@H](OC(=O)N2CCN(C)CC2)/C=C/[C@@H]1C [Compound 198, [(2S,3S,4E,6R,7S,10R)-2-[(E)-1-[3-(azetidin-1-ylsulfonyl)phenyl]prop-1-en-2-yl]-10-hydroxy-3,7-dimethyl-12-oxo-1-oxacyclododec-4-en-6-yl] 4-methylpiperazine-1-carboxylate]",,,,,7.82 nM,2390 nM,43.2 nM,,,−96.773%,21.7 nM,−56.095%,15.5 nM,55.224
C/C(=C\c1cc(F)cc(N2CCN(CCO)CC2)c1)[C@H]1OC(=O)C[C@H](O)CC[C@H](C)[C@@H](OC(=O)N(C)C2CCN(C)CC2)/C=C/[C@@H]1C [Compound 54],−94.487%,8.66 nM,7.81 nM,−96.584%,4.29 nM,12.4 nM,15.8 nM,,,,,,,
